In patent EP0515796A1, “5-Aminoacyl-5,10-dihydro-11H-dibenzo(b,e)(1,4)diazepin-11-ones, processes for their preparation, and their use as medicaments” (ARZNEIMITTELWERK DRESDEN GmbH, priority 1991, dated 1992):
Where a name gives a salt, the structure may show the parent alone. Read-outs that look alike come from different tables or passages of the source. Marks after values point to notes of the source that are not given here.

What was measured:
CaCl2-Arrhythmie = experiment: CaCl2-induced arrhythmia in the rat (antifibrillatory effect); assay type: in vivo, Ratte; conditions: for ED50: read-out: CaCl2-Arrhythmie Ratte, ED50
in vivo = assay type: in vivo; conditions: in vivo; for LD50: intravenous use according to b33, values in brackets = confidence range, read-out: akute Toxizität Ratte, LD50; for selectivity ratio: therapeutic breadth, read-out: Q LD50/ED50
Ratte [1] = conditions: rat, values in brackets = confidence range, cited from earlier work
Ratte [2] = experiment: in vivo; assay type: in vivo
[3] = rat, antifibrillatory effect, values in brackets = confidence range
[4] = rat LD50 / rat CaCl2-arrhythmia ED50

Row | Compound | ED50 (CaCl2-Arrhythmie; [3]) [mg/kg] | LD50 (in vivo; rat) [mg/kg] | selectivity ratio (in vivo; [4]) | other results
1 | C=CC1CN2CCC1CC2C(O)c1ccnc2ccc(OC)cc12 (stereo not drawn) [Chinidin] | 2.7 | 48 | – | selectivity ratio (in vivo; rat, rat LD50 / rat CaCl2-arrhythmia ED50): 18
2 | CCN(CC)CC(=O)Nc1c(C)cccc1C [Lidokain] | 3.1 | – | – | –
3 | CN1C(=O)c2ccccc2N(C(=O)CCCCCNC2CCCCC2)c2ccc(Cl)cc21 [Beispiel 8, 8-Chlor-5-(6-cyclohexylamino-hexanoyl)-5,10-dihydro-10-methyl-11H-dibenzo/b,e//1,4/diazepin-11-on.HCl] | 0.33 | 35 | 106 | –
4 | CN1C(=O)c2ccccc2N(C(=O)CCCCCNC2CCCCC2)c2ccccc21 [Beispiel 7, 5-(6-Cyclohexylamino-hexanoyl)-5,10-dihydro-10-methyl-11H-dibenzo/b,e//1,4/diazepin-11-on.HCl] | 0.025 | 32 | 1280 | –
5 | CC(C)N(CCC(C(N)=O)(c1ccccc1)c1ccccn1)C(C)C (racemic) [Disopyramid] | – | – | – | ED50 (CaCl2-Arrhythmie; Rattus norvegicus): 1.3 mg/kg; selectivity ratio (in vivo; rat, worked out with the cited LD50 of m (male) rats): 55; selectivity ratio (in vivo; rat, worked out with the cited LD50 of w (female) rats): 50; akute Toxizität Ratte, LD50 (Ratte [1]; m (male), literature value from the Palpitin (R) brochure, Gedeon Richter): m 72 (60 - 80) * mg/kg; akute Toxizität Ratte, LD50 (Ratte [1]; w (female), literature value (footnote mark printed only on the m line)): w 66 (50 - 110) mg/kg
6 | 5-(6-Diethylamino-hexanoyl)-5,10-dihydro-10-methyl-11H-dibenzo/b,e//1,4/diazepin-11-on.HCl.0,5 H₂O [Beispiel 4] | – | – | – | CaCl2-Arrhythmie Ratte, ED50 (CaCl2-Arrhythmie; [3]): 0,033 (0,011 - 0,10) mg/kg; akute Toxizität Ratte, LD50 (Ratte [2]; rat, intravenous use according to b33, values in brackets = confidence range): 78 (73 - 84) mg/kg; Q LD50/ED50 (Ratte [2]; therapeutic breadth, rat LD50 / rat CaCl2-arrhythmia ED50): 2364
